# Laboratory results as given in patent publication US8637498B2, “Oxopiperazine-azetidine amides and oxodiazepine-azetidine amides as monoacylglycerol lipase inhibitors” (Janssen Pharmaceutica, NV, priority 2010, dated 2014).
# Residue numbers refer to the chain shown, from its start. Where two headings read alike, the source gives them in different places.
# Legend:
# mutant MGL = target: T1, mutant MGL (Homo sapiens, UniProt Q99685, L169S/L176S); assay: MGL ThermoFluor Assay - Mutant; assay type: binding
# T1 construct: mut-MGLL 11-313 L179S L186S
# T1 sequence (Q99685 1-303 L169S/L176S): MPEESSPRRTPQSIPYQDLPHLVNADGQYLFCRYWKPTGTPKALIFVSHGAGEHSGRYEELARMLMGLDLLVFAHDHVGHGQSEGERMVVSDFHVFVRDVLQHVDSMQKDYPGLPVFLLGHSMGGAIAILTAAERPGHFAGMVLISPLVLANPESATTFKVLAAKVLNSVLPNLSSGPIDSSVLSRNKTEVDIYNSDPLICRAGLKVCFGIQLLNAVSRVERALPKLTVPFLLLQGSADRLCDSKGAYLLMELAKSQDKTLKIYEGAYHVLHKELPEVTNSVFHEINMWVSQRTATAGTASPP
# Procedure: The ThermoFluor (TF) assay is a 384-well plate-based binding assay that measures thermal stability of proteins^1,2. The experiments were carried out using instruments available from Johnson & Johnson Pharmaceutical Research & Development, LLC. TF dye used in all experiments was 1,8-ANS (Invitrogen: A-47). Final TF assay conditions used for MGL studies were 0.07 mg/ml of mutant MGL, 100 μM ANS, 200 mM NaCl, 0.001% Tween-20 in 50 mM PIPES (pH=7.0).
# Screening compound plates contained 100% DMSO compound solutions at a single concentration. For follow-up concentration-response studies, compounds were arranged in a pre-dispensed plate (Greiner Bio-one: 781280), wherein compounds were serially diluted in 100% DMSO across 11 columns within a series. Columns 12 and 24 were used as DMSO reference and contained no compound. For both single and multiple compound concentration-repsonse experiments, the compound aliquots (46 nL) were robotically predispensed directly into 384-well black assay plates (Abgene: TF-0384/k) using the Hummingbird liquid handler. Following compound dispension, protein and dye solutions were added to achieve the final assay volume of 3 μL. The assay solutions were overlayed with 1 μL of silicone oil (Fluka, type DC 200: 85411) to prevent evaporation.
# Bar-coded assay plates were robotically loaded onto a thermostatically controlled PCR-type thermal block and then heated from 40 to 90° C. degrees at a ramp-rate of 1° C./min for all experiments. Fluorescence was measured by continuous illumination with UV light (Hamamatsu LC6), supplied via fiber optics and filtered through a band-pass filter (380-400 nm; >6 OD cutoff). Fluorescence emission of the entire 384-well plate was detected by measuring light intensity using a CCD camera (Sensys, Roper Scientific) filtered to detect 500±25 nm, resulting in simultaneous and independent readings of all 384 wells. A single image with 20-sec exposure time was collected at each temperature, and the sum of the pixel intensity in a given area of the assay plate was recorded vs temperature and fit to standard equations to yield the Tm^1. • 1. Pantoliano, M. W., Petrella, E. C., Kwasnoski, J. D., Lobanov, V. S., Myslik, J., Graf, E., Carver, T., Asel, E., Springer, B. A., Lane, P., and Salemme, F. R. (2001) J Biomol Screen 6, 429-40. • 2. Matulis, D., Kranz, J. K., Salemme, F. R., and Todd, M. J. (2005) Biochemistry 44, 5258-66.
# The Kd values for compounds of Formula (Ia) and (Ib) were determined from a fit of the equation to the concentration-response plot of the fractional activity as a function of Tm. For some experiments, quantitative NMR spectroscopy (qNMR) was used to measure concentration of the initial 100% DMSO compound solutions and, using the same fitting method, qKd values were determined.
# [1] = target: T2, purified mutant MGL (mut-MGLL 11-313 L179S L186S) (Homo sapiens, UniProt Q99685, L169S/L176S); assay: MGL Enzyme Activity Assay (mutant MGL, 4MU-B substrate); assay type: biochemical; settings: mutant MGL 5 nM, 4MU-B 10 μM, 37° C.; read-out: MGL mutant inh IC50
# T2 construct: mut-MGLL 11-313 L179S L186S
# T2 sequence (Q99685 1-303 L169S/L176S): T1 sequence (Q99685 1-303 L169S/L176S)
# Procedure: (§1) All rate-based assays were performed in black 384-well polypropylene PCR microplates (Abgene) in a total volume of 30 μL. Substrate 4-methylumbelliferyl butyrate (4MU-B; Sigma) and either purified mutant MGL (mut-MGLL 11-313 L179S L186S) or purified wild type MGL (wt-MGLL 6H-11-313) were diluted separately into 20 mM PIPES buffer (pH=7.0), containing 150 mM NaCl and 0.001% Tween 20. Compounds of Formula (Ia) and (Ib) were pre-dispensed (50 nL) into the assay plate using a Cartesian Hummingbird prior to adding 4MU-B (25 μL of 1.2× solution to a final concentration of 10 μM) followed by enzyme (5 μL of a 6× solution to a final concentration of 5 nM) to initiate the reaction. Final compound concentrations ranged from 17 to 0.0003 μM. The fluorescence change due to 4MU-B cleavage was monitored with excitation and emission wavelengths of 335 and 440 nm, respectively, and a bandwidth of 10 nm (Safire^2, Tecan) at 37° C. for 5 min.
# (§2) The IC50 values for compounds of Formula (Ia) or (Ib) were determined using Excel from a fit of the equation to the concentration-response plot of the fractional activity as a function of inhibitor concentration.
# MGL = target: T3, MGL (Rattus norvegicus, UniProt Q8R431); assay: 2-AG Accumulation Assay in rat brain homogenate; assay type: biochemical; settings: compound @1 μM, 2-AG accumulation as percent of vehicle
# T3 construct: one g rat brain was homogenized; from tissue; host or cells: rat brain homogenate
# T3 sequence (Q8R431 1-303): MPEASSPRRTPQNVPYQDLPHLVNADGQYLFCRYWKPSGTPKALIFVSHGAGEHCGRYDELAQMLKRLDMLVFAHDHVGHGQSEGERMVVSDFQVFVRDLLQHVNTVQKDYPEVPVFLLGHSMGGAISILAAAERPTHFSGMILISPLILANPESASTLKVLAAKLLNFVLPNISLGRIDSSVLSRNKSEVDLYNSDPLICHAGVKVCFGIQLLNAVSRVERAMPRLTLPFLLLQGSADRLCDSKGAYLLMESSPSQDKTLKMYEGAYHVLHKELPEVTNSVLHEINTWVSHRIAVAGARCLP
# Procedure: After a 15-min incubation time at 37° C., CaCl2 (final concentration=10 mM) was added and then incubated for 15 min at 37° C. in a total volume of 5 mL. The reactions were stopped with 6 mL organic solvent extraction solution of 2:1 chloroform/methanol. Accumulated 2-AG in the organic phase was measured by a HPLC/MS method, according to the following equation: percent vehicle=(2-AG accumulation in the presence of compound/2-AG accumulation in vehicle)×100.
# [2] = target: T4, purified wild type MGL (wt-MGLL 6H-11-313) (Homo sapiens, UniProt Q99685); assay: MGL Enzyme Activity Assay (wild type MGL, 4MU-B substrate); assay type: biochemical; settings: wild type MGL 5 nM, 4MU-B 10 μM, 37° C.; read-out: MGL wild type inh IC50
# T4 construct: wt-MGLL 6H-11-313; 6H (hexahistidine) (N)
# T4 sequence (Q99685 1-303): T1 sequence (Q99685 1-303 L169S/L176S) with S169L, S176L
# Procedure: as §1, §2
# [3] = mutant MGL 0.07 mg/ml, 1,8-ANS dye, read-out: MGL mutant ThermoFluor Kd
# [4] = mutant MGL, compound concentration measured by qNMR, read-out: MGL mutant ThermoFluor qKd (using qNMR conc.)
Structure (SMILES),Kd (mutant MGL; [3]) [nM],IC50 [1] [nM],Rat Brain 2AG % VehCntrl (%) @1 μM (MGL) [%],IC50 [2] [nM],Kd (mutant MGL; [4]) [nM]
"O=C(c1ccc(Cc2ccccc2)cc1)N1CC(N2CCN(c3ccccc3)C(=O)C2)C1 [Cpd 1, 4-(1-(4-benzylbenzoyl)azetidin-3-yl)-1-phenylpiperazin-2-one]",3330,5280,,,
"O=C(c1ccc(-c2ccccc2)cc1)N1CC(N2CCN(c3ccccc3)C(=O)C2)C1 [Cpd 2, 4-(1-([1,1′-biphenyl]-4-carbonyl)azetidin-3-yl)-1-phenylpiperazin-2-one]",19700,4240,,,
"O=C(c1ccc2c(ccn2-c2ccc(C(F)(F)F)cc2)c1)N1CC(N2CCN(c3ncccn3)C(=O)C2)C1 [Cpd 3, 1-Pyrimidin-2-yl-4-[1-({1-[4-(trifluoromethyl)phenyl]-1H-indol-5-yl}carbonyl)azetidin-3-yl]piperazin-2-one]",39.8,,418,6,
"O=C(c1ccc2c(ccn2-c2ccc(F)cc2)c1)N1CC(N2CCN(c3nccs3)C(=O)C2)C1 [Cpd 5, 4-(1-{[1-(4-Fluorophenyl)-1H-indol-5-yl]carbonyl}azetidin-3-yl)-1-(1,3-thiazol-2-yl)piperazin-2-one]",,,316,10,171
"O=C(c1ccc2c(ccn2-c2ccc(F)cc2)c1)N1CC(N2CCN(c3cscn3)C(=O)C2)C1 [Cpd 6, 4-(1-{[1-(4-Fluorophenyl)-1H-indol-5-yl]carbonyl}azetidin-3-yl)-1-(1,3-thiazol-4-yl)piperazin-2-one]",,,302,29,621
"O=C(c1sc2cc(C(F)(F)F)ccc2c1Cl)N1CC(N2CCN(c3cscn3)C(=O)C2)C1 [Cpd 7, 4-(1-{[3-Chloro-6-(trifluoromethyl)-1-benzothiophen-2-yl]carbonyl}azetidin-3-yl)-1-(1,3-thiazol-4-yl)piperazin-2-one]",,,155,67.2,186
"O=C(c1ccc2c(ccn2-c2ccc(F)cc2)c1)N1CC(N2CCC(=O)N(c3ncccn3)CC2)C1 [Cpd 20, 1-(1-{[1-(4-Fluorophenyl)-1H-indol-5-yl]carbonyl}azetidin-3-yl)-4-pyrimidin-2-yl-1,4-diazepan-5-one]",,,,248,282
"O=C(c1ccc2c(ccn2-c2ccc(F)cc2)c1)N1CC(N2CCC(=O)N(c3nccs3)CC2)C1 [Cpd 21, 1-(1-{[1-(4-Fluorophenyl)-1H-indol-5-yl]carbonyl}azetidin-3-yl)-4-(1,3-thiazol-2-yl)-1,4-diazepan-5-one]",,,,< 5,1

# Second part, the molecule after the results:
Kd (mutant MGL; [3]) [nM],IC50 [1] [nM],Rat Brain 2AG % VehCntrl (%) @1 μM (MGL) [%],IC50 [2] [nM],Kd (mutant MGL; [4]) [nM],Structure (SMILES)
,,,< 5,2.5,"O=C(c1ccc2nc(-c3ccccc3)oc2c1)N1CC(N2CCC(=O)N(c3nccs3)CC2)C1 [Cpd 22, 1-{1-[(2-Phenyl-1,3-benzoxazol-6-yl)carbonyl]azetidin-3-yl}-4-(1,3-thiazol-2-yl)-1,4-diazepan-5-one]"
714,,,568,,"O=C(c1cc2ccc(C(F)(F)F)cc2s1)N1CC(N2CCN(c3ncccn3)CC2=O)C1 [Cpd 23, 4-Pyrimidin-2-yl-1-(1-{[6-(trifluoromethyl)-1-benzothiophen-2-yl]carbonyl}azetidin-3-yl)piperazin-2-one]"
433,,155,37.9,,"O=C(c1ccc2c(ccn2-c2ccc(C(F)(F)F)cc2)c1)N1CC(N2CCN(c3ncccn3)CC2=O)C1 [Cpd 24, 4-Pyrimidin-2-yl-1-[1-({1-[4-(trifluoromethyl)phenyl]-1H-indol-5-yl}carbonyl)azetidin-3-yl]piperazin-2-one]"
